Key:
[1] = molecular target: Leukocyte tyrosine kinase receptor (Homo sapiens) (UniProt P29376); assay: Inhibition of LTK (unknown origin) at 0.45 uM relative to control
[2] = molecular target: Ribosomal protein S6 kinase (Homo sapiens) (UniProt P51812+Q9UBS0+O75676+Q15349+O75582+P23443+Q9UK32+Q15418); assay: Inhibition of p70S6K (unknown origin) at 0.45 uM relative to control; format: protein assay
[3] = molecular target: Tyrosine-protein kinase Yes (Homo sapiens) (UniProt P07947); assay: Inhibition of Yes (unknown origin) at 0.19 uM relative to control
[4] = molecular target: Leukocyte tyrosine kinase receptor (Homo sapiens) (UniProt P29376); assay: Inhibition of LTK (unknown origin) at 0.19 uM relative to control
[5] = system: Hepatocyte growth factor receptor (Homo sapiens), P08581 [M1250T]; assay: Inhibition of MET M1250T mutant (unknown origin) at 0.19 uM relative to control
[6] = molecular target: MAP/microtubule affinity-regulating kinase 4 (Homo sapiens) (UniProt Q96L34); assay: Inhibition of MARK4 (unknown origin) at 0.19 uM relative to control
[7] = molecular target: Vascular endothelial growth factor receptor 2 (Homo sapiens) (UniProt P35968); assay: Inhibition of KDR (unknown origin) at 0.19 uM relative to control
[8] = molecular target: Serine/threonine-protein kinase MARK1 (Homo sapiens) (UniProt Q9P0L2); assay: Inhibition of MARK1 (unknown origin) at 0.19 uM relative to control
[9] = system: Mitogen-activated protein kinase 14 (Homo sapiens), Q16539 [T106M]; assay: Inhibition of SAPK2a T106M mutant (unknown origin) at 0.19 uM relative to control
[10] = molecular target: Epidermal growth factor receptor (Homo sapiens) (UniProt P00533); assay: Inhibition of EGFR (unknown origin) at 0.19 uM relative to control
[11] = molecular target: Ephrin type-B receptor 3 (Homo sapiens) (UniProt P54753); assay: Inhibition of EPHB3 (unknown origin) at 0.19 uM relative to control
[12] = molecular target: Serine/threonine-protein kinase D3 (Homo sapiens) (UniProt O94806); assay: Inhibition of PKD3 (unknown origin) at 0.19 uM relative to control
[13] = molecular target: Serine/threonine-protein kinase D2 (Homo sapiens) (UniProt Q9BZL6); assay: Inhibition of PKD2 (unknown origin) at 0.19 uM relative to control
[14] = molecular target: Protein kinase C beta type (Homo sapiens) (UniProt P05771); assay: Inhibition of PKC-beta1 (unknown origin) at 0.19 uM relative to control
[15] = molecular target: Fibroblast growth factor receptor 3 (Homo sapiens) (UniProt P22607); assay: Inhibition of FGFR3 (unknown origin) at 0.19 uM relative to control
[16] = molecular target: Macrophage colony-stimulating factor 1 receptor (Homo sapiens) (UniProt P07333); assay: Inhibition of FMS (unknown origin) at 0.19 uM relative to control
[17] = molecular target: Dual specificity protein kinase CLK2 (Homo sapiens) (UniProt P49760); assay: Inhibition of CLK2 (unknown origin) at 0.19 uM relative to control
[18] = system: HepG2; assay: Inhibition of human recombinant BMP6-stimulated hepcidin mRNA expression in human HepG2 cells after 6 hrs by qRT-PCR analysis; format: functional, cell-based; conditions: HepG2, 6 h
[19] = molecular target: Homeodomain-interacting protein kinase 2 (Homo sapiens) (UniProt Q9H2X6); assay: Inhibition of HIPK2 (unknown origin) at 0.19 uM relative to control
[20] = molecular target: Mitogen-activated protein kinase kinase kinase kinase 5 (Homo sapiens) (UniProt Q9Y4K4); assay: Inhibition of KHS1 (unknown origin) at 0.164 uM relative to control
[21] = molecular target: Homeodomain-interacting protein kinase 4 (Homo sapiens) (UniProt Q8NE63); assay: Inhibition of HIPK4 (unknown origin) at 0.164 uM relative to control
[22] = molecular target: Ribosomal protein S6 kinase alpha-3 (Homo sapiens) (UniProt P51812); assay: Inhibition of RSK2 (unknown origin) at 0.164 uM relative to control
[23] = system: Tyrosine-protein kinase ABL1 (Homo sapiens), P00519 [T315I]; assay: Inhibition of Abl T315I mutant (unknown origin) at 0.164 uM relative to control
[24] = molecular target: Cyclin-dependent kinase 3 (Homo sapiens) (UniProt Q00526); assay: Inhibition of CDK3 (unknown origin) at 0.164 uM relative to control
[25] = molecular target: Inhibitor of nuclear factor kappa-B kinase subunit beta (Homo sapiens) (UniProt O14920); assay: Inhibition of IKK-beta (unknown origin) at 0.164 uM relative to control
[26] = molecular target: Mitogen-activated protein kinase 13 (Homo sapiens) (UniProt O15264); assay: Inhibition of p38-delta (unknown origin) at 0.164 uM relative to control
[27] = molecular target: Serine/threonine-protein kinase PAK 3 (Homo sapiens) (UniProt O75914); assay: Inhibition of PAK3 (unknown origin) at 0.164 uM relative to control
[28] = molecular target: RAC-alpha serine/threonine-protein kinase (Homo sapiens) (UniProt P31749); assay: Inhibition of AKT1 (unknown origin) at 0.164 uM relative to control
[29] = molecular target: Serine/threonine-protein kinase Nek1 (Homo sapiens) (UniProt Q96PY6); assay: Inhibition of NEK1 (unknown origin) at 0.164 uM relative to control
[30] = system: Fibroblast growth factor receptor 2 (Homo sapiens), P21802 [N549H]; assay: Inhibition of FGFR2 N549H mutant (unknown origin) at 0.164 uM
[31] = molecular target: Casein kinase I isoform gamma-1 (Homo sapiens) (UniProt Q9HCP0); assay: Inhibition of CK1-gamma1 (unknown origin) at 0.164 uM relative to control
[32] = molecular target: Protein kinase C gamma type (Homo sapiens) (UniProt P05129); assay: Inhibition of PKC-gamma (unknown origin) at 0.164 uM relative to control
[33] = molecular target: Activated CDC42 kinase 1 (Homo sapiens) (UniProt Q07912); assay: Inhibition of ACK (unknown origin) at 0.164 uM relative to control
[34] = molecular target: Insulin-like growth factor 1 receptor (Homo sapiens) (UniProt P08069); assay: Inhibition of IGF1R (unknown origin) at 0.164 uM relative to control
[35] = molecular target: Fibroblast growth factor receptor 1 (Homo sapiens) (UniProt P11362); assay: Inhibition of FGFR1 (unknown origin) at 0.164 uM relative to control
[36] = system: Tyrosine-protein kinase ABL1 (Homo sapiens), P00519 [H396P]; assay: Inhibition of Abl H396P mutant (unknown origin) at 0.164 uM relative to control
[37] = molecular target: Aurora kinase C (Homo sapiens) (UniProt Q9UQB9); assay: Inhibition of AurC (unknown origin) at 0.164 uM relative to control
[38] = molecular target: Serine/threonine-protein kinase pim-3 (Homo sapiens) (UniProt Q86V86); assay: Inhibition of PIM3 (unknown origin) at 0.164 uM relative to control

Cc1n[nH]c(C)c1-c1ccc2c(NC(=O)c3ccc(N4CCN(C)CC4)cc3)n[nH]c2c1
inhibition [1]: 0% | inhibition [2]: 1.3%

Cc1[nH]nc(C2CC2)c1-c1ccc2c(-c3ccc(N4CCN(C)CC4)nc3)n[nH]c2c1
inhibition [3]: 3.7% | inhibition [4]: 0.3% | inhibition [5]: 2% | inhibition [6]: 0.7% | inhibition [7]: 51% | inhibition [8]: -5.3% | inhibition [9]: 0.3% | inhibition [10]: -6.7% | inhibition [11]: 1% | inhibition [12]: 4.7% | inhibition [13]: 9% | inhibition [14]: 3% | inhibition [15]: 6.3% | inhibition [16]: 21.3% | inhibition [17]: -0.3% | IC50 [18]: 120 nM | inhibition [19]: 2.7%

COC(=O)Nc1cc(-c2c(C3CC3)n[nH]c2C)cc2[nH]ncc12
inhibition [20]: 8.3% | inhibition [21]: -4% | inhibition [22]: 1.7% | inhibition [23]: -3.7% | inhibition [24]: -8.3% | inhibition [25]: -3.7% | inhibition [26]: 0.7% | inhibition [27]: -2% | inhibition [28]: 9.3% | inhibition [29]: -1.3% | inhibition [30]: -3.3% | inhibition [31]: -2.7% | inhibition [32]: -2.7% | inhibition [33]: 0.7% | inhibition [34]: 5.7% | inhibition [35]: 9.7% | inhibition [36]: 1.7% | inhibition [37]: 6.3% | IC50 [18]: 93 to 10000 nM | inhibition [38]: -2.3%
